In ChEMBL document CHEMBL1201862, “PubChem BioAssay data set” (2004):
Values belong to the compound of their own block, whether it stands above or below them. The source made the active and inactive calls. For most assays here, no stated cut-off is given here; in the data, actives have a measured IC50 and inactives only a lower limit.

Legend:
Troponin, cardiac muscle = Troponin, cardiac muscle (Homo sapiens, UniProt P19429+P45379+P63316); assay: Fluorescence-based biochemical high throughput dose response assay for activators of the calcium sensitivity of cardiac Regulated Thin Filaments (RTF). [Related pubchem assays (depositor defined):AID493008, AID493018, AID504382, AID504383]; format: protein-complex assay
Hexokinase HKDC1 = biological target: T1, Hexokinase HKDC1 (Homo sapiens, UniProt Q2TB90); assay: activation of HKDC1 glucose phosphorylation – biochemical, W721R variant, dose response (AID 504730); format: functional
T1 sequence (Q2TB90 whole entry): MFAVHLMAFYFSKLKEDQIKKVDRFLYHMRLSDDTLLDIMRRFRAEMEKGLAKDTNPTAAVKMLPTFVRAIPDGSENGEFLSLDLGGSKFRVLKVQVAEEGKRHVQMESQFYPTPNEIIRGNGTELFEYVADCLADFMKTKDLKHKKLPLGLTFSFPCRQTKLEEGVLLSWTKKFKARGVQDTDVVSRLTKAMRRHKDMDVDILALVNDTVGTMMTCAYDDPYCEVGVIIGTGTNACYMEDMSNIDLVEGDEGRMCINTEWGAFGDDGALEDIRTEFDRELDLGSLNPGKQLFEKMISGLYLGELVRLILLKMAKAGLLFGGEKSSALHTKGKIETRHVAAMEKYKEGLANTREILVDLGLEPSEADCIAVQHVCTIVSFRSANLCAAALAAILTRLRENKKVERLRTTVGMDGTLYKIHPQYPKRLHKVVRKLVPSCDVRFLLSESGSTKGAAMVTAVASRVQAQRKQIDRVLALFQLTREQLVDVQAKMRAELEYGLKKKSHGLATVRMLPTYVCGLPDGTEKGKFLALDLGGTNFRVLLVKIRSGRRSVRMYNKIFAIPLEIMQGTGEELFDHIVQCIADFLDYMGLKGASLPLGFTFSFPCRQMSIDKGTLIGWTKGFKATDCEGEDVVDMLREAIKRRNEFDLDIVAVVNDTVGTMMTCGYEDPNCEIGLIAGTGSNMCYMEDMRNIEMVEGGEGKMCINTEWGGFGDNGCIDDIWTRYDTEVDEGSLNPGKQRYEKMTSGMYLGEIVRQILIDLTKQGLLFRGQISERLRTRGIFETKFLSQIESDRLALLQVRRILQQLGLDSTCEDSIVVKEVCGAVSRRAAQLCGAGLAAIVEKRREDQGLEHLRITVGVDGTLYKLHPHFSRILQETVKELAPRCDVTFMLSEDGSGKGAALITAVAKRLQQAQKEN

[1] = biological target: T2, Tyrosine-protein phosphatase non-receptor type 22 (Homo sapiens, UniProt Q9Y2R2); assay: SAR LYP1 Fluorescent Assay using OMFP substrate for In Vitro dose response studies - Set 3. [Related pubchem assays (depositor defined):AID1779, AID1784, AID2140, AID2686]; format: functional
T2 sequence (Q9Y2R2 whole entry): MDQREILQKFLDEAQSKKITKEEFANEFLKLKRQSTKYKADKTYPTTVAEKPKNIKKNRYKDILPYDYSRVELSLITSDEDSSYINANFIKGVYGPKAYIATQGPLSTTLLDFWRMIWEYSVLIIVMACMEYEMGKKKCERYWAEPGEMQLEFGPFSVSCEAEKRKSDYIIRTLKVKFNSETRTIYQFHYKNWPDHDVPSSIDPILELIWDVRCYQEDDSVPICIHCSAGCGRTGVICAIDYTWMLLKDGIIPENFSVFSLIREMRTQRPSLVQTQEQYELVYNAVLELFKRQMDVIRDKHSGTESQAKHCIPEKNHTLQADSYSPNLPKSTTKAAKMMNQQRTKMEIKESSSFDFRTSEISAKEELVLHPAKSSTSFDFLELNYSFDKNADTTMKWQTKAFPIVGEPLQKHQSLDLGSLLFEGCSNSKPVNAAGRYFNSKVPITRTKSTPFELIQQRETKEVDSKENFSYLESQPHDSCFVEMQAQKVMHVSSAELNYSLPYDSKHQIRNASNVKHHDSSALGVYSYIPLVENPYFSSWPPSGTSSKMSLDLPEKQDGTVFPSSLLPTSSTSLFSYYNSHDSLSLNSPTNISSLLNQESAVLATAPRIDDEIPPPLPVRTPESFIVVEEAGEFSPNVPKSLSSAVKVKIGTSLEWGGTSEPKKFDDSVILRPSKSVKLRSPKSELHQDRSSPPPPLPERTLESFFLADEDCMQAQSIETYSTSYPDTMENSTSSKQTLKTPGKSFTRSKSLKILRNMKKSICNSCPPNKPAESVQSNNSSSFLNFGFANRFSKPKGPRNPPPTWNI

[2] = biological target: T2, Tyrosine-protein phosphatase non-receptor type 22; assay: inhibition of lymphoid tyrosine phosphatase LYP – biochemical, pCAP fluorogenic substrate, fluorescence, set 3, SAR follow-up (AID 449727); format: functional
[3] = biological target: Tyrosine-protein phosphatase non-receptor type 12 (Homo sapiens, UniProt Q05209); assay: SAR Selectivity Analysis of small molecule inhibitors of PEST using pCAP in a fluorescence assay. [Related pubchem assays (depositor defined):AID1779, AID1784, AID2135]; format: functional
Chain of Tyrosine-protein phosphatase non-receptor type 12 (Q05209 whole entry): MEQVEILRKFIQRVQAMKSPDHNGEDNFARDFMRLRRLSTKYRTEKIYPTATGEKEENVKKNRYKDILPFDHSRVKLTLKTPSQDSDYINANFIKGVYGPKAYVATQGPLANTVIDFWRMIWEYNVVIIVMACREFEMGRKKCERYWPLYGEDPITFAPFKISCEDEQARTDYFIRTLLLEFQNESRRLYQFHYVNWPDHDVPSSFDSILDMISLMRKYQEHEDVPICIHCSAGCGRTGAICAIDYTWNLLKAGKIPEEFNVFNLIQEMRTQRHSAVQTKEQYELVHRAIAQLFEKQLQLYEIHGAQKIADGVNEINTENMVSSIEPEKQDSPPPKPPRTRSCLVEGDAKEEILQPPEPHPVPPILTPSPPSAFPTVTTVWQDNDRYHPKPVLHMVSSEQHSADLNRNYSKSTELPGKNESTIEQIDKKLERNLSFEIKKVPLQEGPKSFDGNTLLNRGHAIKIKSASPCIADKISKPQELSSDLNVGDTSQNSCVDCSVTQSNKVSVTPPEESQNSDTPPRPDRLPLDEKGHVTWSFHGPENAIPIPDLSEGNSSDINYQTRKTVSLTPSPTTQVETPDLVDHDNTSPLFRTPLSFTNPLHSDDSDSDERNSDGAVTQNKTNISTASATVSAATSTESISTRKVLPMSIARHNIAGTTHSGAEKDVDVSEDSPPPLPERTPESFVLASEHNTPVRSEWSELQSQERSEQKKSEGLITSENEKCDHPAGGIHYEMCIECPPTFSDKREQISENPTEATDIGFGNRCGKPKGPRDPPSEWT

[4] = biological target: T3, Tyrosine-protein phosphatase non-receptor type 7 (Homo sapiens, UniProt P35236); assay: inhibition of hematopoietic tyrosine phosphatase HePTP – biochemical, set 2, SAR follow-up (AID 449736); format: functional
T3 sequence (P35236 whole entry): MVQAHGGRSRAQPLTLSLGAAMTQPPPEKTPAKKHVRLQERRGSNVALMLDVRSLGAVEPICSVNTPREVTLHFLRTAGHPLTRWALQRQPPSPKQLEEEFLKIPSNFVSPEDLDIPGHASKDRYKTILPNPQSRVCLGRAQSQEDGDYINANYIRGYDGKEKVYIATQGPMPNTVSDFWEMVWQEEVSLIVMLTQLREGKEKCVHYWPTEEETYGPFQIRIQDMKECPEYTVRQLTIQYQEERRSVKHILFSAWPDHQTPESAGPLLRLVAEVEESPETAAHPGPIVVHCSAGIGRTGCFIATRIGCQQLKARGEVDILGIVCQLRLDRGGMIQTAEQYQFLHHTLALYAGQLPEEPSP

[5] = biological target: Eukaryotic translation initiation factor 4E (Mus musculus, UniProt P63073); assay: blockers of eIF4G binding by eIF4E – biochemical, TR-FRET, dose response (AID 855); format: functional;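 further: potency for disrupting eIF4E binding to eIF4GI seen as loss of FRET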
Chain of Eukaryotic translation initiation factor 4E (P63073 whole entry): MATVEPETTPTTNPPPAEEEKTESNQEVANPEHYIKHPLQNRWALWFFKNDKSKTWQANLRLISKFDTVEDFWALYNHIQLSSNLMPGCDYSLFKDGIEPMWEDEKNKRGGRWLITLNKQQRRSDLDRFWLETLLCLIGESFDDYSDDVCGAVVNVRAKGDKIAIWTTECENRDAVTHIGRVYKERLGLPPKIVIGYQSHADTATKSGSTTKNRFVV

[6] = biological target: DNA dC->dU-editing enzyme APOBEC-3G (Homo sapiens, UniProt Q9HC16); format: functional;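 further: Dose-response counterscreen measuring inhibition of APOBEC3G DNA deaminase activity, run while confirming APOBEC3A inhibitors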
Chain of DNA dC->dU-editing enzyme APOBEC-3G (Q9HC16 whole entry): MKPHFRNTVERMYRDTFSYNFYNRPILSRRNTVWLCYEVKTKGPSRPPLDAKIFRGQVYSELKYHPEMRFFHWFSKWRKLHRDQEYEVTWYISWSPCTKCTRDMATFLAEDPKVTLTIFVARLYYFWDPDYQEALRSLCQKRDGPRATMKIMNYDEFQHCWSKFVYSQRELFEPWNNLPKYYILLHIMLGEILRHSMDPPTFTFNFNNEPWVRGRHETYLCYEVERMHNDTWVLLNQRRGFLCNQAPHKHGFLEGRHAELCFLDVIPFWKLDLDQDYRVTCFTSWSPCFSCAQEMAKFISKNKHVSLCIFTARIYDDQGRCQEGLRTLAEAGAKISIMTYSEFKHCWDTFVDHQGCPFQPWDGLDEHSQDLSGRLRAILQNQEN

[7] = biological target: DNA dC->dU-editing enzyme APOBEC-3A (Homo sapiens, UniProt P31941); assay: Dose Response confirmation of small molecule APOBEC3A DNA Deaminase Inhibitors via a fluorescence-based single-stranded DNA deaminase assay. [Related pubchem assays (depositor defined):AID493011, AID493024]; format: functional
Chain of DNA dC->dU-editing enzyme APOBEC-3A (P31941 whole entry): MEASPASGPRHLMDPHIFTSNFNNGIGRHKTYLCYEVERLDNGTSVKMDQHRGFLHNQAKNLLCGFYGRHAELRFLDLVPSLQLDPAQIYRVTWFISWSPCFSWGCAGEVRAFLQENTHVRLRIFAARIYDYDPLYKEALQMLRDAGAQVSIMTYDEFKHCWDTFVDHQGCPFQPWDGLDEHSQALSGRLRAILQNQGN

EC50 (Troponin, cardiac muscle): > 71.5 µM (inactive)
Compound: O=C1c2ccccc2C(Nc2cccnc2)N1Cc1ccccc1Cl (centres undefined)

EC50 (Hexokinase HKDC1): > 80 µM (inactive)
Compound: O=C(COC(=O)c1n[nH]c2ccccc12)c1cccc(Br)c1

IC50 [1]: 44.5 µM (active)
IC50 [2]: 8.93 µM (active)
IC50 [3]: 3.13 µM (active)
IC50 [4]: 331 nM (active)
IC50 [5]: 16.4 µM (active)
Compound: COc1ccc(CN2C(=O)/C(=C/c3ccc(-c4ccc(Cl)c(C(=O)O)c4)o3)SC2=S)cc1

Compound: CC(C)(C)OC(=O)N1CC(O)CC1C(=O)OCC(=O)c1ccc(-c2ccccc2)cc1 (centres undefined)
IC50 [6]: 2.89 µM (active)
IC50 [7]: 1.79 µM (active)
